Results from patent US10829520B2, “Beta-hairpin peptidomimetics” (POLYPHOR AG, priority 2015, dated 2020).
Where a SMILES comes first, the peptide text is derived from it. Bridges are numbered along the chain shown (N, C = ends). [ ]: non-standard residue; d: D form. Pen = CC(C)(S)[C@H](N)C(=O)O; Tle = CC(C)(C)[C@H](N)C(=O)O; dDab = NCC[C@@H](N)C(=O)O; Nle = CCCC[C@H](N)C(=O)O; Orn = NCCC[C@H](N)C(=O)O; Dab = NCC[C@H](N)C(=O)O; Sar = CNCC(=O)O

Experiments:
Format in all cases: cell-based
[1] = tested on: Escherichia coli ATCC 25922; conditions: ATCC 25922
In short: (§1)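 Peptide stocks (1 mg/mL, water) were diluted two-fold into MH-II broth with 0.002% P-80 and mixed with approx. 10^6 CFU/mL bacteria. Plates were read visually after 18-20 hours at 35° C, with MIC expressed in μg/mL per CLSI.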

[2] = tested on: Acinetobacter baumannii 872842; conditions: 872842
[3] = tested on: Klebsiella pneumoniae 968733; conditions: 968733
[4] = tested on: Acinetobacter baumannii DSM 30008; conditions: DSM 30008
In short: as §1

[5] = tested on: Klebsiella pneumoniae SSI #3010; conditions: SSI #3010
In short: as §1

Escherichia coli 926415 = conditions: 926415
[6] = tested on: Pseudomonas aeruginosa ATCC 27853; conditions: ATCC 27853
In short: as §1

[7] = tested on: human red blood cells (hRBC); assay: Hemolysis of human red blood cells; conditions: red cells of human, 1 h, 100 μg/mL
In short: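 Each peptide was tested at a single concentration, 100 μg/mL. Erythrocytes (20% v/v) were incubated 1 h at 37° C. under shaking at 300 rpm, centrifuged, and released hemoglobin measured at OD540. Controls were PBS containing 0.001% acetic acid (0%) and Triton X-100 (100%).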

SMILES | Escherichia coli ATCC 25922 MIC [1] | Acinetobacter baumannii 872842 MIC [2] | Klebsiella pneumoniae 968733 MIC [3] | Acinetobacter baumannii DSM 30008 MIC [4] | Klebsiella pneumoniae SSI #3010 MIC [5] | Escherichia coli 926415 MIC (Escherichia coli 926415) | Pseudomonas aeruginosa ATCC 27853 MIC [6] | Hemolysis at 100 μg/mL [7]
CC(C)C[C@@H]1NC(=O)[C@H](C)NC(=O)[C@H]2CCCN2C(=O)[C@H](CO)NC(=O)[C@H](C)NC(=O)[C@H](C(C)C)NC(=O)[C@@H](NC(=O)[C@@H](N)Cc2c[nH]c3ccccc23)CSSC[C@@H](C(=O)N[C@@H](CCN)C(=O)N[C@@H](CCN)C(=O)N[C@H](C(=O)N[C@@H](CCN)C(=O)N[C@H]2CCNC(=O)[C@H]([C@@H](C)O)NC(=O)[C@H](CCN)NC(=O)[C@H](CCN)NC(=O)[C@H](CC(C)C)NC(=O)[C@@H](CC(C)C)NC(=O)[C@H](CCN)NC2=O)[C@@H](C)O)NC(=O)[C@H](Cc2ccc(O)cc2)NC(=O)[C@H](CO)NC1=O [Ex. 125] (H-WCVAS[dP]ALSYC[Dab][Dab]T[Dab][Dab][Dab][dL]L[Dab][Dab]T; disulfide 2-11; lactam 16-C) | 0.0625 µg/mL | 0.0625 µg/mL | 1 µg/mL | 0.125 µg/mL | 0.125 µg/mL | 0.25 µg/mL | 0.5 µg/mL | 1%
CC(C)C[C@@H]1NC(=O)[C@@H](CC(C)C)NC(=O)[C@H](CCN)NC(=O)[C@@H](NC(=O)[C@H](CCN)NC(=O)[C@@H](NC(=O)[C@H](CCN)NC(=O)[C@H](CCN)NC(=O)[C@@H]2CSSC[C@H](NC(=O)[C@@H](N)Cc3c[nH]c4ccccc34)C(=O)N[C@@H](C(C)C)C(=O)N[C@@H](C)C(=O)N[C@@H](CO)C(=O)NCC(=O)N3CCC[C@H]3C(=O)N[C@@H](CC(C)C)C(=O)N[C@@H](CO)C(=O)N[C@@H](Cc3ccc(O)cc3)C(=O)N2)[C@@H](C)O)CCNC(=O)[C@H]([C@@H](C)O)NC(=O)[C@H](CCN)NC(=O)[C@H](CCN)NC1=O [Ex. 128] (H-WCVASGPLSYC[Dab][Dab]T[Dab][Dab][Dab][dL]L[Dab][Dab]T; disulfide 2-11; lactam 16-C) | 0.125 µg/mL | 0.25 µg/mL | 4 µg/mL | 0.125 µg/mL | 0.125 µg/mL | 0.5 µg/mL | 0.5 µg/mL | 1%
CC(=O)N[C@@H](Cc1c[nH]c2ccccc12)C(=O)N[C@@H](C)C(=O)N[C@H](C(=O)N[C@H]1CSSC[C@@H](C(=O)N[C@@H](Cc2ccc(O)cc2)C(=O)N[C@@H](C)C(=O)N[C@@H](CCCN)C(=O)N[C@H](CCN)C(=O)N[C@@H](CCN)C(=O)N[C@H]2CCNC(=O)[C@H]([C@@H](C)O)NC(=O)[C@H](CCN)NC(=O)[C@H](CCN)NC(=O)[C@H](CC(C)C)NC(=O)[C@@H](Cc3ccccc3)NC(=O)[C@H](CCN)NC2=O)NC(=O)[C@H](CC(C)C)NC(=O)[C@H](CCN)NC(=O)[C@H]2CCCN2C(=O)[C@H](C(C)C)NC1=O)C(C)C [Ex. 120] (Ac-WAVCV[dP][Dab]LCYA[Orn][dDab][Dab][Dab][Dab][dF]L[Dab][Dab]T; disulfide 4-9; lactam 15-C) | 1 µg/mL | 0.25 µg/mL | 8 µg/mL | 0.25 µg/mL | 1 µg/mL | 2 µg/mL | 1 µg/mL | <1%
CCCC[C@@H]1NC(=O)[C@@H]2CCCN2C(=O)[C@H]2CCCN2C(=O)[C@H](CO)NC(=O)[C@H](C)NC(=O)[C@H](C(C)(C)C)NC(=O)[C@@H](NC(=O)[C@H](Cc2c[nH]c3ccccc23)NC(C)=O)CSSC[C@@H](C(=O)N[C@@H](CCN)C(=O)N[C@H](C(=O)N[C@H](C)C(=O)N[C@@H](CCN)C(=O)N[C@H]2CCNC(=O)[C@H]([C@@H](C)O)NC(=O)[C@H](CCN)NC(=O)[C@H](CCN)NC(=O)[C@H](CC(C)C)NC(=O)[C@@H](Cc3ccccc3)NC(=O)[C@H](CCN)NC2=O)[C@@H](C)O)NC(=O)[C@H](Cc2ccc(O)cc2)NC(=O)[C@H](CO)NC1=O [Ex. 32] (Ac-WC[Tle]AS[dP]P[Nle]SYC[Dab]T[dA][Dab][Dab][Dab][dF]L[Dab][Dab]T; disulfide 2-11; lactam 16-C) | 0.125 µg/mL | 0.25 µg/mL | 1 µg/mL | 0.125 µg/mL | 0.25 µg/mL | 0.5 µg/mL | 0.25 µg/mL | 2%
CNCC(=O)N[C@@H](CC(C)C)C(=O)N[C@H]1CSSC[C@@H](C(=O)N(C)CC(=O)N[C@@H](CCN)C(=O)N[C@H](C(=O)N[C@@H](CCN)C(=O)N[C@H]2CCNC(=O)[C@H]([C@@H](C)O)NC(=O)[C@H](CCN)NC(=O)[C@H](CCN)NC(=O)[C@H](CC(C)C)NC(=O)[C@@H](CC(C)C)NC(=O)[C@H](CCN)NC2=O)[C@@H](C)O)NC(=O)[C@H](Cc2ccc(O)cc2)NC(=O)[C@H](CO)NC(=O)[C@H](CC(C)C)NC(=O)[C@@H]2CCCN2C(=O)[C@H]2CCCN2C(=O)[C@H](Cc2ccc(O)cc2)NC(=O)[C@H](C)NC(=O)[C@H](C(C)C)NC1=O [Ex. 186] (H-[Sar]LCVAY[dP]PLSYC[Sar][Dab]T[Dab][Dab][Dab][dL]L[Dab][Dab]T; disulfide 3-12; lactam 17-C) | 0.125 µg/mL | 0.0625 µg/mL | 0.5 µg/mL | 0.1251 µg/mL | 0.125 µg/mL | 0.25 µg/mL | 0.25 µg/mL | <1%
CNCC(=O)N[C@@H](Cc1c[nH]c2ccccc12)C(=O)N[C@H]1CSSC[C@@H](C(=O)N(C)CC(=O)N[C@H](C(=O)N[C@@H](CCN)C(=O)N[C@@H](CCN)C(=O)N[C@H]2CCNC(=O)[C@H]([C@@H](C)O)NC(=O)[C@H](CCN)NC(=O)[C@H](CCN)NC(=O)[C@H](CC(C)C)NC(=O)[C@@H](CC(C)C)NC(=O)[C@H](CCN)NC2=O)[C@@H](C)O)NC(=O)[C@H](Cc2ccc(O)cc2)NC(=O)[C@H](CO)NC(=O)[C@H](CC(C)C)NC(=O)[C@@H]2CCCN2C(=O)[C@H]2CCCN2C(=O)[C@H](CO)NC(=O)[C@H](C)NC(=O)[C@H](C(C)C)NC1=O [Ex. 184] (H-[Sar]WCVAS[dP]PLSYC[Sar]T[Dab][Dab][Dab][Dab][dL]L[Dab][Dab]T; disulfide 3-12; lactam 17-C) | 0.5 µg/mL | 1 µg/mL | 1 µg/mL | 0.5 µg/mL | 0.5 µg/mL | 1 µg/mL | 0.75 µg/mL | <1%
CC(C)C[C@@H]1NC(=O)[C@@H](CC(C)C)NC(=O)[C@H](CCN)NC(=O)[C@@H](NC(=O)[C@H](CCN)NC(=O)[C@@H](NC(=O)[C@H](CCN)NC(=O)[C@H](CCN)NC(=O)[C@H]2NC(=O)[C@H](Cc3ccc(O)cc3)NC(=O)[C@H](CO)NC(=O)[C@H](CC(C)C)NC(=O)[C@@H]3CCCN3C(=O)[C@H]3CCCN3C(=O)[C@H](CO)NC(=O)[C@H](C)NC(=O)[C@H](C(C)C)NC(=O)[C@@H](NC(=O)[C@@H](N)Cc3c[nH]c4ccccc34)C(C)(C)SSC2(C)C)[C@@H](C)O)CCNC(=O)[C@H]([C@@H](C)O)NC(=O)[C@H](CCN)NC(=O)[C@H](CCN)NC1=O [Ex. 122] (H-W[Pen]VAS[dP]PLSY[Pen][Dab][Dab]T[Dab][Dab][Dab][dL]L[Dab][Dab]T; disulfide 2-11; lactam 16-C) | 0.0625 µg/mL | 0.03125 µg/mL | 1 µg/mL | 0.125 µg/mL | 0.5 µg/mL | 0.25 µg/mL | 0.5 µg/mL | 2%
CCCC[C@@H]1NC(=O)[C@@H]2CCCN2C(=O)[C@H]2CCCN2C(=O)[C@H](CO)NC(=O)[C@H](CO)NC(=O)[C@H](C(C)(C)C)NC(=O)[C@H](CCN)NC(=O)[C@H](Cc2c[nH]c3ccccc23)NC(=O)[C@@H](N)CSSC[C@@H](C(=O)N[C@@H](CCC(N)=O)C(=O)N[C@H](CCN)C(=O)N[C@H]2CCNC(=O)[C@H]([C@@H](C)O)NC(=O)[C@H](CCN)NC(=O)[C@H](CCN)NC(=O)[C@H](CC(C)C)NC(=O)[C@@H](Cc3ccccc3)NC(=O)[C@H](CCN)NC2=O)NC(=O)[C@H](CCCN)NC(=O)[C@H](CCN)NC(=O)[C@H](Cc2ccc(O)cc2)NC(=O)[C@H](CO)NC1=O [Ex. 203] (H-CW[Dab][Tle]SS[dP]P[Nle]SY[Dab][Orn]CQ[dDab][Dab][Dab][dF]L[Dab][Dab]T; disulfide 1-14; lactam 17-C) | 0.5 µg/mL | 0.5 µg/mL | 4 µg/mL | 2 µg/mL | 1 µg/mL | 0.25 µg/mL | 1 µg/mL | <1%
